{"source": "patent US20230045421A1", "about": "(priority 2018, published 2023)", "system": "HBV rcDNA", "test": "HepDE19 assay with bDNA quantitation of HBV rcDNA", "type": "cell-based, hepatitis B virus", "how_it_was_run": "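HepDE19 cells (HepG2-derived, Tet-regulated HBV replication) were deprived of tetracycline and then exposed to compounds for 7 days at 37 °C in 0.5% DMSO, 8-point titration from 25 μM. rcDNA was quantified by bDNA and EC50/EC90 came from 4-parameter fits. CC50 was measured by CellTiter-Glo ATP content on replicate plates after 4 days.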", "key": {"[1]": {"conditions": "read-out: DE-19bDNA EC50, HepDE19 assay, inhibition of formation of relaxed circular DNA (rcDNA), bDNA quantitation"}, "[2]": {"conditions": "HepDE19 assay, inhibition of formation of relaxed circular DNA (rcDNA), bDNA quantitation, read-out: DE-19bDNA EC50"}, "[3]": {"conditions": "HepDE19 assay, inhibition of formation of rcDNA, read-out: DE-19bDNA EC50"}, "[4]": {"conditions": "Hepatitis B virus, HepDE19, HepDE19 assay, inhibition of formation of rcDNA, read-out: DE-19bDNA EC50"}}, "note": "Where two headings read alike, the source gives them in different places.", "data": [{"compound": "CC(c1c[nH]c(=O)c2cc(F)c(F)cc12)N(C)C(=O)Nc1ccc(Cl)cc1", "note": "(single isomer, unassigned) [Compound 400, 3-(4-Chlorophenyl)-1-(1-(6,7-difluoro-1-oxo-1,2-dihydroisoquinolin-4-yl)ethyl)-1-methylurea]", "values": [{"measurement": "EC50", "setting": "[1]", "result": 7.2, "unit": "µM"}]}, {"compound": "CC(c1c[nH]c(=O)c2c(F)c(F)ccc12)N(C)C(=O)Nc1cc(Cl)cc(Cl)c1", "note": "(single isomer, unassigned) [Compound 448, 3-(3,5-Dichlorophenyl)-1-(1-(7,8-difluoro-1-oxo-1,2-dihydroisoquinolin-4-yl)ethyl)-1-methylurea]", "values": [{"measurement": "EC50", "setting": "[1]", "result": 0.07, "unit": "µM"}]}, {"compound": "CC(c1c[nH]c(=O)c2cc(F)c(F)cc12)N(C)C(=O)Nc1ccc(F)c(C(F)F)c1", "note": "(single isomer, unassigned) [Compound 501, 1-(1-(6,7-Difluoro-1-oxo-1,2-dihydroisoquinolin-4-yl)ethyl)-3-(3-(difluoromethyl)-4-fluorophenyl)-1-methylurea]", "values": [{"measurement": "EC50", "setting": "[2]", "result": 0.73, "unit": "µM"}]}, {"compound": "C[C@H](c1c[nH]c(=O)c2ccccc12)N(C)C(=O)Nc1ccnc(C(F)(F)F)c1", "note": "(single isomer, unassigned) [Compound 95]", "values": [{"measurement": "EC50", "setting": "Hepatitis B virus, HepDE19, read-out: DE-19bDNA EC50 (μM), HepDE19 assay, inhibition of formation of rcDNA", "result": 1.1, "unit": "µM"}]}, {"compound": "CC(c1cnc(C(N)=O)c2ccccc12)N(C)C(=O)Nc1ccc(F)c(Cl)c1", "note": "(single isomer, unassigned) [Compound 328, 4-(1-(3-(3-Chloro-4-fluorophenyl)-1-methylureido)ethyl)isoquinoline-1-carboxamide]", "values": [{"measurement": "EC50", "setting": "[2]", "result": 4.1, "unit": "µM"}]}, {"compound": "CC(C)CN(C(=O)Nc1ccc(F)c(Cl)c1)C(C)c1c[nH]c(=O)c2cnccc12", "note": "(single isomer, unassigned) [Compound 254, 3-(3-Chloro-4-fluorophenyl)-1-isobutyl-1-(1-(1-oxo-1,2-dihydro-2,7-naphthyridin-4-yl)ethyl)urea]", "values": [{"measurement": "EC50", "setting": "[3]", "result": 0.016, "unit": "µM"}]}, {"compound": "CC(C)CN(C(=O)Nc1ccc(F)c(Cl)c1)C(C)c1c[nH]c(=O)c2c(F)c(F)ccc12", "note": "(single isomer, unassigned) [Compound 338, 3-(3-Chloro-4-fluorophenyl)-1-(1-(7,8-difluoro-1-oxo-1,2-dihydroisoquinolin-4-yl)ethyl)-1-isobutylurea]", "values": [{"measurement": "EC50", "setting": "[2]", "result": 0.8, "unit": "µM"}]}, {"compound": "CC(c1c[nH]c(=O)c2c(F)c(F)ccc12)N(C)C(=O)Nc1cc(Cl)c(F)c(Cl)c1", "note": "(single isomer, unassigned) [Compound 451, 3-(3,5-Dichloro-4-fluorophenyl)-1-(1-(7,8-difluoro-1-oxo-1,2-dihydroisoquinolin-4-yl)ethyl)-1-methylurea]", "values": [{"measurement": "EC50", "setting": "[2]", "result": 3.2, "unit": "µM"}]}, {"compound": "CCN(C(=O)Nc1ccc(F)c(F)c1)C(C)c1c[nH]c(=O)c2cc(F)c(F)cc12", "note": "(single isomer, unassigned) [Compound 423, 1-(1-(6,7-Difluoro-1-oxo-1,2-dihydroisoquinolin-4-yl)ethyl)-3-(3,4-difluorophenyl)-1-ethylurea]", "values": [{"measurement": "EC50", "setting": "[2]", "result": 0.021, "unit": "µM"}]}, {"compound": "CC(c1c[nH]c(=O)c2ccccc12)N(Cc1ccncn1)C(=O)Nc1ccc(F)c(Cl)c1", "note": "(single isomer, unassigned) [Compound 321, 3-(3-Chloro-4-fluorophenyl)-1-(1-(1-oxo-1,2-dihydroisoquinolin-4-yl)ethyl)-1-(pyrimidin-4-ylmethyl)urea]", "values": [{"measurement": "EC50", "setting": "[2]", "result": 19, "unit": "µM"}]}, {"compound": "CCN(C(=O)Nc1ccc(F)cc1)C(C)c1c[nH]c(=O)c2c(F)c(F)ccc12", "note": "(single isomer, unassigned) [Compound 465, 1-(1-(7,8-Difluoro-1-oxo-1,2-dihydroisoquinolin-4-yl)ethyl)-1-ethyl-3-(4-fluorophenyl)urea]", "values": [{"measurement": "EC50", "setting": "[2]", "result": 0.019, "unit": "µM"}]}, {"compound": "CC(c1c[nH]c(=O)c2ccccc12)N(Cc1cncs1)C(=O)Nc1ccc(F)c(Cl)c1", "note": "(single isomer, unassigned) [Compound 324, 3-(3-Chloro-4-fluorophenyl)-1-(1-(1-oxo-1,2-dihydroisoquinolin-4-yl)ethyl)-1-(thiazol-5-ylmethyl)urea]", "values": [{"measurement": "EC50", "setting": "[2]", "result": 4.5, "unit": "µM"}]}, {"compound": "CC(c1c[nH]c(=O)c2ccccc12)N(CCS(C)(=O)=O)C(=O)Nc1ccc(F)c(Cl)c1", "note": "(single isomer, unassigned) [Compound 108, 3-(3-Chloro-4-fluorophenyl)-1-(2-(methylsulfonyl)ethyl)-1-(1-(1-oxo-1,2-dihydroisoquinolin-4-yl)ethyl)urea]", "values": [{"measurement": "EC50", "setting": "[3]", "result": 0.05, "unit": "µM"}]}, {"compound": "CC(c1cnc(NCCO)c2ccccc12)N(C)C(=O)Nc1ccc(F)c(Cl)c1", "note": "(single isomer, unassigned) [Compound 242, 3-(3-Chloro-4-fluorophenyl)-1-(1-(1-((2-hydroxyethyl)amino)isoquinolin-4-yl)ethyl)-1-methylurea]", "values": [{"measurement": "EC50", "setting": "[3]", "result": 0.17, "unit": "µM"}]}, {"compound": "CC(c1c[nH]c(=O)c2cnccc12)N(CCCO)C(=O)Nc1ccc(F)c(Cl)c1", "note": "(single isomer, unassigned) [Compound 252, 3-(3-Chloro-4-fluorophenyl)-1-(3-hydroxypropyl)-1-(1-(1-oxo-1,2-dihydro-2,7-naphthyridin-4-yl)ethyl)urea]", "values": [{"measurement": "EC50", "setting": "[3]", "result": 0.052, "unit": "µM"}]}, {"compound": "CC(c1c[nH]c(=O)c2c(F)c(F)ccc12)N(C)C(=O)Nc1ccc(F)c(C#N)c1", "note": "(single isomer, unassigned) [Compound 470, 3-(3-Cyano-4-fluorophenyl)-1-(1-(7,8-difluoro-1-oxo-1,2-dihydroisoquinolin-4-yl)ethyl)-1-methylurea]", "values": [{"measurement": "EC50", "setting": "[2]", "result": 2, "unit": "µM"}]}, {"compound": "C[C@H](c1c[nH]c(=O)c2ccccc12)N(C)C(=O)Nc1ccc(Cl)cc1", "note": "[Compound 293, (R)-3-(4-Chlorophenyl)-1-methyl-1-(1-(1-oxo-1,2-dihydroisoquinolin-4-yl)ethyl)urea]", "values": [{"measurement": "EC50", "setting": "Hepatitis B virus, HepDE19, read-out: DE-19bDNA EC50 (μM), HepDE19 assay, inhibition of formation of relaxed circular DNA (rcDNA), bDNA quantitation", "result": 0.34, "unit": "µM"}]}, {"compound": "CCN(C(=O)Nc1ccc(F)cc1)C(C)c1c[nH]c(=O)c2cc(F)c(F)cc12", "note": "(single isomer, unassigned) [Compound 403, 1-(1-(6,7-Difluoro-1-oxo-1,2-dihydroisoquinolin-4-yl)ethyl)-1-ethyl-3-(4-fluorophenyl)urea]", "values": [{"measurement": "EC50", "setting": "[2]", "result": 0.028, "unit": "µM"}]}, {"compound": "COc1ncc(CN(CC2CC2)C(=O)Nc2ccc(F)c(Cl)c2)c2ccccc12", "note": "[Compound 31, 3-(3-Chloro-4-fluorophenyl)-1-(cyclopropylmethyl)-1-((1-methoxyisoquinolin-4-yl)methyl)urea]", "values": [{"measurement": "EC50", "setting": "[4]", "result": 0.87, "unit": "µM"}]}, {"compound": "CC(c1c[nH]c(=O)c2cc(F)c(F)cc12)N(C)C(=O)Nc1cccc(F)c1F", "note": "(single isomer, unassigned) [Compound 431, 1-(1-(6,7-Difluoro-1-oxo-1,2-dihydroisoquinolin-4-yl)ethyl)-3-(2,3-difluorophenyl)-1-methylurea]", "values": [{"measurement": "EC50", "setting": "[2]", "result": 0.29, "unit": "µM"}]}, {"compound": "CC(c1c[nH]c(=O)c2cnccc12)N(CCCO)C(=O)Nc1ccc(F)c(Cl)c1", "note": "(single isomer, unassigned) [Compound 251, 3-(3-Chloro-4-fluorophenyl)-1-(3-hydroxypropyl)-1-(1-(1-oxo-1,2-dihydro-2,7-naphthyridin-4-yl)ethyl)urea]", "values": [{"measurement": "EC50", "setting": "[3]", "result": 15, "unit": "µM"}]}, {"compound": "Cc1cc(NC(=O)NCc2c[nH]c(=O)c3ccccc23)ccc1F", "note": "[Compound 4, 1-(4-Fluoro-3-methylphenyl)-3-((1-oxo-1,2-dihydroisoquinolin-4-yl)methyl)urea]", "values": [{"measurement": "EC50", "setting": "[4]", "result": 4.8, "unit": "µM"}]}, {"compound": "Cc1cc(NC(=O)N(C)C(C)c2c(C)[nH]c(=O)c3ccccc23)ccc1F", "note": "(single isomer, unassigned) [Compound 237, 3-(4-Fluoro-3-methylphenyl)-1-methyl-1-(1-(3-methyl-1-oxo-1,2-dihydroisoquinolin-4-yl)ethyl)urea]", "values": [{"measurement": "EC50", "setting": "[3]", "result": 0.04, "unit": "µM"}]}, {"compound": "CC(c1c[nH]c(=O)c2cc(F)ccc12)N(C)C(=O)Nc1ccc(F)c(Cl)c1", "note": "(racemic) [Compound 257, 3-(3-Chloro-4-fluorophenyl)-1-(1-(7-fluoro-1-oxo-1,2-dihydroisoquinolin-4-yl)ethyl)-1-methylurea]", "values": [{"measurement": "EC50", "setting": "[4]", "result": 0.033, "unit": "µM"}]}, {"compound": "CC(c1c[nH]c(=O)c2c(F)c(F)ccc12)N(C)C(=O)NCc1ccc(F)cc1", "note": "(single isomer, unassigned) [Compound 491, 1-(1-(7,8-Difluoro-1-oxo-1,2-dihydroisoquinolin-4-yl)ethyl)-3-(4-fluorobenzyl)-1-methylurea]", "values": [{"measurement": "EC50", "setting": "[2]", "result": 21, "unit": "µM"}]}, {"compound": "CC(c1c[nH]c(=O)c2cc(F)c(F)cc12)N(CCS(N)(=O)=O)C(=O)Nc1ccc(F)c(Cl)c1", "note": "(single isomer, unassigned) [Compound 386, 2-(3-(3-Chloro-4-fluorophenyl)-1-(1-(6,7-difluoro-1-oxo-1,2-dihydroisoquinolin-4-yl)ethyl)ureido) ethane-1-sulfonamide]", "values": [{"measurement": "EC50", "setting": "[2]", "result": 0.011, "unit": "µM"}]}, {"compound": "COCCCN(C(=O)Nc1ccc(F)c(Cl)c1)C(C)c1cnc(OC)c2ccccc12", "note": "(single isomer, unassigned) [Compound 82, 3-(3-Chloro-4-fluorophenyl)-1-(1-(1-methoxyisoquinolin-4-yl)ethyl)-1-(3-methoxypropyl)urea]", "values": [{"measurement": "EC50", "setting": "[3]", "result": 0.32, "unit": "µM"}]}, {"compound": "CC(c1c[nH]c(=O)c2c(Cl)cccc12)N(C)C(=O)Nc1ccc(F)c(Cl)c1", "note": "(single isomer, unassigned) [Compound 168, 1-(1-(8-Chloro-1-oxo-1,2-dihydroisoquinolin-4-yl)ethyl)-3-(3-chloro-4-fluorophenyl)-1-methylurea]", "values": [{"measurement": "EC50", "setting": "[3]", "result": 0.07, "unit": "µM"}]}, {"compound": "CC(c1c[nH]c(=O)c2c(F)c(F)ccc12)N(C)C(=O)Nc1ccc2cc[nH]c2c1", "note": "(single isomer, unassigned) [Compound 498, 1-(1-(7,8-Difluoro-1-oxo-1,2-dihydroisoquinolin-4-yl)ethyl)-3-(1H-indol-6-yl)-1-methylurea]", "values": [{"measurement": "EC50", "setting": "[2]", "result": 11, "unit": "µM"}]}, {"compound": "CC(c1cn(C)c(=O)c2cc(F)c(F)cc12)N(CCCO)C(=O)Nc1ccc(F)c(Cl)c1", "note": "(single isomer, unassigned) [Compound 351, 3-(3-Chloro-4-fluorophenyl)-1-(1-(6,7-difluoro-2-methyl-1-oxo-1,2-dihydroisoquinolin-4-yl)ethyl)-1-(3-hydroxypropyl)urea]", "values": [{"measurement": "EC50", "setting": "[2]", "result": 0.007, "unit": "µM"}]}]}
